{"source": "patent US11512335B2", "about": "“Vertebrate cells and methods for recombinantly expressing a polypeptide of interest” (Novartis AG, priority 2014, dated 2022)", "key": {"C1r (C1ra) mRNA": {"system": "C1r (C1ra) mRNA", "assay": "siRNA silencing in CHO-K1 derived cells, mRNA expression by real-time RT-PCR", "type": "cell-based, Chinese hamster", "settings": "for residual protease gene-expression: siRNA negative control cells = 100%", "description": "(§1) First, the proteolytic cleavage site(s) of different recombinant proteins that are prone to clipping were analyzed using different techniques including CE-SDS analysis, mass spectrometry and in silico analysis (data not shown). […] The siRNAs were designed against the following target mRNAs expressed in CHO cells: 1. Matriptase (MT-SP1; also referred to herein as St14), 2. C1r (complement component activated C1r; also referred to as Ctra), 3. C1s (complement component C1sB; also referred to as Gm5077), 4. Plat (t-plasminogen activator) and 5. Prss35 (protease, serine, 35). These target genes encode trypsin-like proteases that are either secreted or transmembrane proteins and thus could be involved in clipping of recombinantly expressed proteins that are secreted into the cell culture medium. It was confirmed in advance that these proteins are expressed by the CHO cells. Table 2 provides an overview over the respective target genes:\n(§2) RNAi transfection of CHO-K1 derived cells was performed using Lipofectamine® RNAiMAX Reagent (Life Technology, cat. 13778), following the ‘Reverse Transfection Protocol’ of the manual MAN0001182, scaled up for 6-well plates. For each mRNA target, the two most efficient concentrations of RNAi duplex molecules were used among 100, 125 and 150 pmol: 125 and 150 pmol for MT-SP1 (St14), 125 and 150 pmol for C1r (C1ra), 100 and 125 pmol for Cis (Gm5077), 125 and 150 pmol for Plat and 100 and 125 pmol for Prss35. RNAi duplex molecules of the two selected concentrations were diluted in 1 ml Opti-MEM® (Gibco, cat. 31985-062). As RNAi negative control (siRNA negative control), the Silencer@ Negative Control No. 1 siRNA (AM4611) was used (at 125 pmol). 5 μl Lipofectamine® RNAiMAX Reagent was added in each well. 2 ml of a cell suspension with a concentration of 0.5×10^6 cells/ml were added and plates were incubated at 37° C. and 10% CO2. Three days after transfection, cell density was measured, total RNA of 3×10^6 viable cells was extracted using RNeasy Plus Mini Kit (Qiagen, cat. 74134) and conditioned medium was collected from each well. To control the silencing effect on the target genes, mRNA expression was determined by real-time RT-PCR."}, "Plat mRNA": {"system": "Plat mRNA", "assay": "siRNA silencing in CHO-K1 derived cells, mRNA expression by real-time RT-PCR", "type": "cell-based, Chinese hamster", "settings": "for residual protease gene-expression: siRNA negative control cells = 100%", "description": "as §1, §2"}, "C1s (Gm5077) mRNA": {"system": "C1s (Gm5077) mRNA", "assay": "siRNA silencing in CHO-K1 derived cells, mRNA expression by real-time RT-PCR", "type": "cell-based, Chinese hamster", "settings": "for residual protease gene-expression: siRNA negative control cells = 100%", "description": "as §1, §2"}, "[1]": {"system": "Matriptase (MT-SP1, St14) mRNA", "assay": "siRNA silencing in CHO-K1 derived cells, mRNA expression by real-time RT-PCR", "type": "cell-based, Chinese hamster", "settings": "for residual protease gene-expression: siRNA negative control cells = 100%, three days after transfection", "description": "as §1, §2"}, "Prss35 mRNA": {"system": "Prss35 mRNA", "assay": "siRNA silencing in CHO-K1 derived cells, mRNA expression by real-time RT-PCR", "type": "cell-based, Chinese hamster", "settings": "for residual protease gene-expression: siRNA negative control cells = 100%", "description": "as §1, §2"}, "matriptase": {"biological_target": "T1, matriptase (Homo sapiens, UniProt Q9Y5Y6)", "T1 sequence (Q9Y5Y6 1-855)": "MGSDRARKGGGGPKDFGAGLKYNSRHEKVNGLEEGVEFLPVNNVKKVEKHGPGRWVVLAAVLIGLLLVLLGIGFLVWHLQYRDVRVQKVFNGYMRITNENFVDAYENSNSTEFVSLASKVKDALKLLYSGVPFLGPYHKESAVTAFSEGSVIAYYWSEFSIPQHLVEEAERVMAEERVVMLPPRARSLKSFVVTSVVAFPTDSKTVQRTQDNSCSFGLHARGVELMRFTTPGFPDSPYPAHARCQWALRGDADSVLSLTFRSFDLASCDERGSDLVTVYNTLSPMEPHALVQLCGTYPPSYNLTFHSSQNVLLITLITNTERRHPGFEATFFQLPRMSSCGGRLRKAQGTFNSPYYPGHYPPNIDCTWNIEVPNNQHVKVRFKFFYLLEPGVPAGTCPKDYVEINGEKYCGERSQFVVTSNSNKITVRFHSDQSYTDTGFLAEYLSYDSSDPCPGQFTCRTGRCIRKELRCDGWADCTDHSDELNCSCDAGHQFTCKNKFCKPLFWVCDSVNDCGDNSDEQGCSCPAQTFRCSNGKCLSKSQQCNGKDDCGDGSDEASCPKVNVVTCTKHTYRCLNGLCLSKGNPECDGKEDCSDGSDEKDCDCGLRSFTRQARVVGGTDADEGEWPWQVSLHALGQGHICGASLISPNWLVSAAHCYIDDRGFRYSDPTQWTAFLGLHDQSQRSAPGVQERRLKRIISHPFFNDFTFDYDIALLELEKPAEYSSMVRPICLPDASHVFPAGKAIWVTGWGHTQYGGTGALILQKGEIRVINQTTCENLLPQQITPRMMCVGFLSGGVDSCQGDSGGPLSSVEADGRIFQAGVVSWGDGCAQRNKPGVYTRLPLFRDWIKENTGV", "settings": "Forbs et al. 2005; Desilets et al. 2006; cited from earlier work"}}, "note": "pKi: −log10 of the molar value. Several values for one entry are separate records, joined by “and”; a condition that tells them apart may be missing. Equal entries are not always repeated.", "data": [{"substance": "C1r (C1ra): siRNA against C1ra mRNA, sense SEQ ID NO: 8, antisense SEQ ID NO: 9 (sense GAUGUCUUUUCUCAAAAUATT; antisense UAUUUUGAGAAAAGACAUCAT; chemistry not given here)", "values": [{"measurement": "residual protease gene-expression", "setting": "C1r (C1ra) mRNA; 125 pmol siRNA", "result": 6.3, "unit": "%"}, {"measurement": "residual protease gene-expression", "setting": "C1r (C1ra) mRNA; 150 pmol siRNA", "result": 6.7, "unit": "%"}, {"measurement": "mRNA reduction", "setting": "C1r (C1ra) mRNA; two siRNA concentrations", "result": "93.7% and 93.3%"}]}, {"substance": "Plat: siRNA against Plat mRNA, sense SEQ ID NO: 12, antisense SEQ ID NO: 13 (sense GAAACAAGAUGAAGACAGATT; antisense UCUGUCUUCAUCUUGUUUCCC; chemistry not given here)", "values": [{"measurement": "residual protease gene-expression", "setting": "Plat mRNA; 125 pmol siRNA", "result": 8.3, "unit": "%"}, {"measurement": "residual protease gene-expression", "setting": "Plat mRNA; 150 pmol siRNA", "result": 5.1, "unit": "%"}, {"measurement": "mRNA reduction", "setting": "Plat mRNA; two siRNA concentrations", "result": "91.7% and 94.9%"}]}, {"substance": "C1s (Gm5077): siRNA against Gm5077 (C1s) mRNA, sense SEQ ID NO: 10, antisense SEQ ID NO: 11 (sense CGCUGAACGUGUGAUUAUUTT; antisense AAUAAUCACACGUUCAGCGGT; chemistry not given here)", "values": [{"measurement": "residual protease gene-expression", "setting": "C1s (Gm5077) mRNA; 100 pmol siRNA", "result": 11.9, "unit": "%"}, {"measurement": "residual protease gene-expression", "setting": "C1s (Gm5077) mRNA; 125 pmol siRNA", "result": 14.4, "unit": "%"}, {"measurement": "mRNA reduction", "setting": "C1s (Gm5077) mRNA; two siRNA concentrations, listed as Cis (Gm5077)", "result": "88.1% and 85.6%"}]}, {"substance": "MT-SP1: siRNA against matriptase mRNA, sense SEQ ID NO: 6, antisense SEQ ID NO: 7 (sense GCAAGAUCACUGUUCGCUUTT; antisense AAGCGAACAGUGAUCUUGCTG; chemistry not given here)", "values": [{"measurement": "residual protease gene-expression", "setting": "[1]; 125 pmol siRNA", "result": 18.6, "unit": "%"}, {"measurement": "residual protease gene-expression", "setting": "[1]; 150 pmol siRNA", "result": 18.2, "unit": "%"}, {"measurement": "MT-SP1 suppressed in comparison to the negative control", "setting": "[1]; two set-ups (125 and 150 pmol siRNA)", "result": "81.4% and 81.8%"}]}, {"substance": "Prss35: siRNA against Prss35 mRNA, sense SEQ ID NO: 14, antisense SEQ ID NO: 15 (sense GGCCUUAGACUACGACUAUTT; antisense AUAGUCGUAGUCUAAGGCCGG; chemistry not given here)", "values": [{"measurement": "residual protease gene-expression", "setting": "Prss35 mRNA; 100 pmol siRNA", "result": 18.4, "unit": "%"}, {"measurement": "residual protease gene-expression", "setting": "Prss35 mRNA; 125 pmol siRNA", "result": 14.8, "unit": "%"}, {"measurement": "mRNA reduction", "setting": "Prss35 mRNA; two siRNA concentrations", "result": "81.6% and 85.2%"}]}, {"substance": "eglin c", "values": [{"measurement": "pKi", "setting": "matriptase", "result": 7.74}]}]}
